Measurements reported in patent US8257915B2, “Farnesyltransferase inhibitors for treatment of laminopathies, cellular aging and atherosclerosis” (Progeria Research Foundation, Inc., priority 2002, dated 2012).
Read-outs that look alike come from different tables or passages of the source.

How the values were obtained:
[1] = system: normal fibroblasts (GM08398) transiently expressing GFP-lamin A or GFP-progerin; assay: Nuclear morphology and GFP localization in normal fibroblasts transiently expressing GFP-lamin A or GFP-progerin, exposed to FTI; format: cell-based, human; settings: 100 nM FTI, 72 hours
Procedure: (§1) FIG. 7 illustrates the effect of a 72 hour exposure to 100 nM FTI (PD169451) on GFP-lamin A (A) and GFP-progerin (B) localization, protein processing (C) and nuclear morphology (D and E). Confocal microscopy was used to examine the effects of FTIs on transiently-expressed GFP-lamin A (A) and GFP-progerin (B) in normal fibroblasts. Three focal planes are shown—top, middle and bottom (from left to right). Exposure to 100 nM FTI for 72 hours caused about half of the endogenous lamin A to be unprocessed pre-lamin A in normal and HGPS fibroblasts (C). Exposure to the FTI increased the percent of mock transfected cells and GFP-lamin A expressing cells with abnormal nuclear morphology (D). However, the percentage of cells expressing GFP-progerin with an abnormal nuclear morphology decreased by 33% when exposed to the FTI for 72 hours.
GFP localization: Normal and HGPS fibroblasts were plated on coverslips in six well plates or in chambered microscope slides (BD Biosciences) 24 hours prior to transfection. Fibroblasts were transiently transfected with the GFP-lamin A or GFP-progerin expression constructs using FUGENE®6 transfection reagent (Roche). Seventy-two hours later the cells were washed two times with PBS (pH 7.2) and fixed for 20 minutes at 4° C. with 4% paraformaldehyde in PBS containing 62.5 µg/ml LPC palmitoyl and 1 U/ml rhodamine phalloidin (Molecular Probes) to stain the cytoskeleton. Following three washes with PBS, Prolong Gold mounting medium with DAPI (Molecular Probes) was applied to the coverslips which were then inverted and placed on microscope slides.
Normal and HGPS fibroblasts were plated on coverslips in 6 well plates 24 hours prior to transfection. Normal fibroblasts were transiently transfected with the GFP-lamin A or GFP-progerin expression constructs using FUGENE®6 transfection reagent (Roche). The following day, the medium was replaced with growth medium containing 0 nM, 100 nM, 500 nM or […] of the FTI, PD169451. […]

[2] = system: HGPS fibroblasts (AG11498, P01, HGADFN136, HGADFN004); assay: Nuclear morphology of HGPS fibroblasts maintained in FTI; format: cell-based, human
Procedure: (§2) FIG. 10 illustrates the effect of long-term exposure to low doses of FTI (PD169451) on the nuclear morphology of normal (GM08398 and HGMDFN090) and HGPS (AG11498, P01, HGADFN136 and HGADFN004) fibroblasts. Fibroblasts were maintained in medium with 0 nM, 10 nM or 100 nM FTI. Cultures were plated in chambered microscope slides 24 hours prior to fixing with 4% paraformaldehyde for nuclear morphology studies. **—Too few cells to count. […] All cell lines were passage 6 at the beginning of the analysis except for HGADFN004, which was at passage 12.
(§3) Normal and HGPS fibroblasts were maintained in T75 tissue culture flasks with 0 nM, 10 nM, and 100 nM concentrations of the FTI, PD169451, added to the growth medium. The medium was changed every 2 days and the cells were split when they were approximately 80% confluent. Three days prior to each time point, a flask was trypsinized and cells were placed in chambered microscope slides (BD Biosciences) and maintained in the appropriate FTI concentration. Seventy-two hours later the cells were washed two times with PBS (pH 7.2) and fixed for 20 minutes at 4° C. with 4% paraformaldehyde in PBS containing 62.5 µg/ml LPC palmitoyl and 1 U/ml rhodamine phalloidin (Molecular Probes) to stain the cytoskeleton. Following three washes with PBS, […] of ProLong Gold mounting medium with DAPI (Molecular Probes) was applied and the cells were overlaid with a coverslip.

[3] = system: normal fibroblasts (GM08398 and HGMDFN090); assay: Nuclear morphology of normal fibroblasts maintained in FTI; format: cell-based, human
Procedure: as §2, §3

[4] = system: normal fibroblasts (GM08398) stably expressing GFP-lamin A, GFP-progerin and GFP-LA(L647R); assay: Nuclear morphology and GFP localization in normal fibroblasts stably expressing GFP fusions (retroviral TET-OFF), exposed to FTI; format: cell-based, human
Procedure: FIG. 11 illustrates the effect of the FT1, PD169451, on the nuclear morphology of normal fibroblasts (GM08398) stably expressing GFP-lamin A, GFP-progerin and GFP-LA(L647R) using a retroviral TET-OFF® expression vector system (Clontech). Fibroblasts were maintained in medium with 0 nM, 10 nM or 100 nM FTI for 6 days.
Cultures were plated in chambered microscope slides 24 hours prior to fixing with 4% paraformaldehyde for nuclear morphology studies. Cells were maintained in three predetermined tetracycline concentrations, 0 mM for full expression (A), 0.05 mM for intermediate expression levels (B), and 8 mM for very low expression levels (C). […] Analysis of nuclear morphology was performed in a double blinded fashion with at least 70 cells analyzed per sample.
FIG. 12 illustrates the effect of FTI on the distribution of GFP signal in normal fibroblasts (GM08398) expressing GFP-lamin A (panels A, B and C), GFP-progerin (D, E and F) and GFP-LA(L647R) (G, H, and I) using a retroviral TET-OFF® expression vector system with various FTI concentrations. Fibroblasts were maintained in medium with 0 nM (A, D, G), 10 nM (B, E, and H) or 100 nM (C, F and I) FTI for six days. Expression levels of the GFP fusions were maintained at levels similar to endogenous levels of lamin A by the addition of 0.05 mg/ml tetracycline. Signals were visualized with a Zeiss AXIOPHOT™ Fluorescent microscope and imaging was performed using the Olympus DP70 Digital Camera System.
Retroviral Constructs: The pRevTetOff vector and pRevTRE constructs were transfected using FUGENE®6 transfection reagent into the Amphotropic Phoenix retroviral packaging line (Peter Nolan, Stanford University). Forty-eight hours after transfection the media containing retrovirus was filtered through a 0.22 micron filter and used immediately or stored at −70° C. Retroviral infection was performed by exposing target cells to a 1:1 mix of retroviral supernatant and growth medium with 4 μg/ml polybrene.
By way of example, GFP-lamin A and GFP-progerin were expressed from TET-OFF® retroviral expression vector constructs that allowed for sustained expression and modulation of expression to address the possibility of results due to over-expression of the fusion proteins when the proteins were transiently expressed. In addition, a cleavage minus mutant, GFP-LA(L647R), was included to examine the effect of retaining the farnesyl group without the 50 amino acid deletion found in progerin.

endogenous lamin A = assay: Lamin A processing (pre-lamin A) by immunoblot after FTI exposure; format: cell-based, human; settings: 100 nM FTI, 72 hours; normal and HGPS fibroblasts
Procedure: as §1
Immunoblotting: Proteins were transferred to Immobilon-P membrane (Millipore) using a Trans-Blot semi-dry electrophoretic transfer cell (BioRad) blocked with 5% dry milk in TBST and probed with lamin A/C specific antibodies according to standard protocols.

[5] = cited from earlier work
[6] = 10 nM FTI, 6 days, intermediate expression (0.05 mg/ml tetracycline), p<0.0001

## CC(C)(CNC(=O)CN(Cc1ccc(OCc2ccccc2)cc1)C(=O)[C@H](Cc1cnc[nH]1)NC(=O)OCc1ccccc1)c1ccccc1 [PD169451]
[1]
  effect on the localization of transiently expressed GFP-lamin A and GFP-progerin: significant effect
  percent of mock transfected cells and GFP-lamin A expressing cells with abnormal nuclear morphology: increased
[1]; normal fibroblasts transiently expressing GFP-progerin
  decrease in the percentage of cells expressing GFP-progerin with an abnormal nuclear morphology: 33%
[2]; 10 nM FTI
  percentage of abnormal nuclei in HGPS fibroblasts and in normal fibroblasts expressing GFP-progerin: significantly lowered
[2]; 10 nM FTI, 14 days, HGPS cell line HGADFN004
  drop in abnormal morphology: 12%
[2]; 10 nM FTI, 14 days, three HGPS lines each
  decrease in abnormal nuclei: ≥ 70%
[2]; 10 nM FTI, two days, four HGPS cell lines
  reduction in the percent of cells with abnormal nuclei: ~40%
[2]; 100 nM FTI, 14 day time point
  growth of HGADFN004 line: failed to grow
[2]; AG11498 line, various FTI concentrations, three days
  drop in the percent of cells with abnormal nuclear morphology: ≤ 40%
[2]; long-term exposure, normal and HGPS fibroblasts
  FTI dose that caused cells to stop dividing after a week to 10 days: greater than 200 nM
[2]; normal fibroblasts expressing progerin and HGPS fibroblasts (summary of Example 3)
  nuclear morphology phenotype: significant improvement
[3]; 0, 10, 100 nM FTI
  abnormal nuclear morphology in normal fibroblasts, dose dependence: dose dependent manner
[3]; 10 nM FTI
  nuclear morphology of normal cells: did not substantially alter
[3]; high doses of the FTI, greater than 200 nM
  abnormal nuclear morphology in normal fibroblasts: increase in abnormal nuclear morphology
[4]; [6]
  reduction of percent abnormal nuclei, GFP-LA(L647R): 67%
  reduction of percent abnormal nuclei, GFP-progerin: 71%
[4]; 10 nM FTI, stable expression
  reorganization of GFP signal for any of the fusion proteins: did not lead to this drastic reorganization
[4]; 10 nM FTI, no tetracycline
  effect on abnormal nuclear morphology at very high expression levels of GFP-progerin or GFP-LA(L647R): could not overcome
[4]; 100 nM FTI, stable expression
  localization of GFP-lamin A and GFP-progerin: localize to intranuclear filaments
  localization of GFP-tagged L647R mutant: redistributed to intranuclear filaments
[4]; 100 nM FTI, intermediate expression of GFP-progerin and GFP-LA(L647R)
  improvement in abnormal nuclear morphology at 100 nM in comparison to 10 nM: less profound
Endogenous lamin A
  endogenous lamin A present as unprocessed pre-lamin A: about half

## Cn1cncc1[C@@](N)(c1ccc(Cl)cc1)c1ccc2c(c1)c(-c1cccc(Cl)c1)cc(=O)n2C [tipifarnib]
[5]; Phase III trials, including trials involving children
  tolerability: well tolerated
[5]; clinical trials
  tolerability: well tolerated
